Measured values as given in patent publication US20250129021A1, “SMALL MOLECULE PROTEIN SYNTHESIS MODULATORS” (Interdict Bio, Inc., priority 2023, published 2025).
Where a name gives a salt, the structure may show the parent alone.

Tests used:
Format in all cases: biochemical
Conditions in all cases: HeLa S3 lysate, sfGFP/mCherry ratio, 2 hrs at 30° C.
MYC = assay: In vitro transcription-translation (IVTT) assay, MYC reporter
In short: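 Reporter: mCherry, P2A, then 3×FLAG-target peptide-sfGFP fusion, IRES-initiated; HeLa S3 lysate IVTT; cpd dilutions 30 μM−0.1 μM half-log in 100% DMSO (dilution-plate conc); DNA added last; 2 h, 30° C; PBS quench.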

ALK = assay: In vitro transcription-translation (IVTT) assay, ALK reporter
From the text: (§1) All reporter constructs have been cloned into the pT7CFE1-CHis plasmid (ThermoFisher #88860) using Gibson assembly procedures (NEB #E2611L). The parental pT7CFE1-CHis plasmid contains an EMCV IRES at the 5′UTR for translation initiation, a multiple-cloning site (MCS) for gene insertion, an optional C-terminal His-epitope tag, and polyA sequence in the 3′UTR to regulate mRNA stability. All reporters are designed to be inserted at the MCS to include a red fluorescent protein (mCherry), P2A self-cleaving peptide which releases the preceding mCherry protein product, and a fusion open reading frame containing a 3×FLAG epitope, a peptide sequence of interest (TEST), and green fluorescent protein (sfGFP).
(§2) Construct Plasmid Preparation: All plasmids are isolated from MACH1 cells (ThermoFisher) grown overnight in ampicillin-containing luria broth, and purified using ZymoPure Express Plasmid Midiprep Kit (Zymo Research). Constructs are sequenced verified and diluted to a working concentration of 110 ng/μL.
(§3) HeLa S3 Lysate Preparation: HeLa S3 cell pellets are acquired from Ipracell/Ipratech (Belgium) and shipped as 4 mL frozen cell pellets on dry ice for storage at −80° C. until use. The procedure for lysate preparation is as follows. Prepare 1× Lysis Buffer, cold and stored on ice:
(§4) Each preparation takes 8 cell pellets (4 ml packed volume each, approximately 1.0×10^9 cells per pellet). Thaw cell pellets from −80° C. on ice for 90 mins. Lay pellets horizontally on top of the ice and rotate every 30 mins to ensure even thawing. Once thawed, add 4 mL of cold lysis buffer to each pellet, and using a serological pipet, gently pipet up and down to break up clumps. Incubate resuspended cells in ice for an additional 30 mins (plunged into ice). During 30 min incubation, rinse and RNase-zap (Ambion) glass dounces (use loose pestle “A”), gently dry and place on ice until needed. Prepare RNase-free Eppendorf tubes for spinning and for batch storage. Add batch labels to 1.5-1.7 mL RNase-free microcentrifuge tubes (labeling scheme below). Each batch will have an extra 1.5-1.7 mL RNase-free microcentrifuge tube for 40 μL of lysate, label the top of this tube (labeling scheme below). After 30 min incubation, transfer all 8 mL of cell pellet to dounce. Cell lysis is complete after douncing 100 times. Aliquot cell lysis into 1.5-1.7 mL temporary-microcentrifuge tubes. Place tubes in centrifuge with “fins” out, and spin at 1,200×g for 5 mins. After the first spin use a 1 mL pipet to resuspend each tube and repeat spin. This acts as an additional lysis step, is more vigorous and increases lysate yield. During second spin get liquid N2 and a fresh conical tube on ice. After spin is complete, transfer supernatant (lysate) from microcentrifuge tubes into the 50 mL conical tube and keep on ice. Repeat steps 10-14 for all other cell pellets until completed. Once all cell lysate has been transferred to the 50 mL conical tube pipet to mix so the solution is homogenous. Transfer 1 mL of lysate into batch-labeled microcentrifuge tubes and flash freeze in liquid nitrogen. Be sure to pipet up and down to mix throughout transfer step. Place all tubes in the […] for long-term storage.
(§5) In vitro transcription-translation assay setup: Each assay includes a master mix containing lysate and shared components, a 96-well plate containing compound titrations for testing, a 96-well DNA plate with reporter constructs to be tested, 96-well skirted PCR plates, and 96-well flat-bottom, black, fluorescent assay plates. […]

KRAS G12D = assay: In vitro transcription-translation (IVTT) assay, KRAS G12D reporter
From the text: as §1, §2, §3, §4, §5

IC50 (MYC) | IC50 (ALK) | IC50 (KRAS G12D) | SMILES
> 30 µM | > 30 µM | > 30 µM | COc1ccc(C[C@H]2NC[C@H](O)[C@H]2OC(=O)NCCN(C(C)C)C(C)C)cc1 [V187436, (2R,3S,4S)-4-hydroxy-2-[(4-methoxyphenyl)methyl]pyrrolidin-3-yl N-[2-(diisopropylamino)ethyl]carbamate]
10 to 20 µM | < 10 µM | 20 to 30 µM | COc1ccc(C[C@H]2NC[C@H](O)[C@H]2OC(=O)NCCCOCC(C)C)cc1 [V187437, (2R,3S,4S)-4-hydroxy-2-[(4-methoxyphenyl)methyl]pyrrolidin-3-yl N-[3-(2-methylpropoxy)propyl]carbamate]
< 10 µM | < 10 µM | 20 to 30 µM | COc1ccc(C[C@H]2NC[C@H](O)[C@H]2OC(=O)NCCc2cnn(Cc3ccccc3)c2)cc1 [V187439, (2R,3S,4S)-4-hydroxy-2-(4-methoxybenzyl)pyrrolidin-3-yl (2-(1-benzyl-1H-pyrazol-4-yl)ethyl) carbamate]
< 10 µM | < 10 µM | 10 to 20 µM | COc1ccc(C[C@H]2NC[C@H](O)[C@H]2OC(=O)NCCN2CCN(Cc3ccccc3)CC2)cc1 [V187465, (2R,3S,4S)-4-hydroxy-2-[(4-methoxyphenyl)methyl]pyrrolidin-3-yl N-[2-(4-benzylpiperazin-1-yl)ethyl]carbamate]
> 30 µM | 10 to 20 µM | > 30 µM | COCCN(CCNC(=O)O[C@@H]1[C@H](O)CN[C@H]1Cc1ccc(OC)cc1)CCc1ccccc1 [V187508, (2S,3S,4R)-4-hydroxy-2-[(4-methoxyphenyl)methyl]pyrrolidin-3-yl N-{2-[(2-methoxyethyl)(2-phenylethyl)amino]ethyl}carbamate]
< 10 µM | < 10 µM | 10 to 20 µM | COc1ccc(C[C@H]2NC[C@H](O)[C@H]2OC(=O)NCC2CCSCC2)cc1 [V187516, (2R,3S,4S)-4-hydroxy-2-[(4-methoxyphenyl)methyl]pyrrolidin-3-yl N-(thian-4-ylmethyl) carbamate]
> 30 µM | 10 to 20 µM | > 30 µM | COc1ccc(C[C@@H]2NC[C@@H](O)[C@H]2OC(=O)NCCN(Cc2c[nH]cn2)C(=O)C2CCC2)cc1 [V187540, (2S,3S,4R)-4-hydroxy-2-[(4-methoxyphenyl)methyl]pyrrolidin-3-yl N-{2-[1-cyclobutyl-N-(1H-imidazol-4-ylmethyl)formamido]ethyl}carbamate]
> 30 µM | > 30 µM | > 30 µM | COc1ccc(C[C@H]2NC[C@H](O)[C@H]2OC(=O)NCCN2C[C@@H](NC(=O)C3CC(F)(F)C3)[C@H](NC(=O)C3CC(F)(F)C3)C2)cc1 [V187554]
> 30 µM | 20 to 30 µM | > 30 µM | COc1ccc(C[C@H]2NC[C@H](O)[C@H]2OC(=O)NCC[C@H]2CNCCN2Cc2ccccc2)cc1 [V187568, (2R,3S,4S)-4-hydroxy-2-[(4-methoxyphenyl)methyl]pyrrolidin-3-yl N-{2-[(2S)-1-benzylpiperazin-2-yl]ethyl}carbamate]
> 30 µM | < 10 µM | 10 to 20 µM | COc1ccc(C[C@H]2NC[C@H](O)[C@H]2OC(=O)NCCN2C[C@@H](O)[C@H](O)C2)cc1 [V187577, (2R,3S,4S)-4-hydroxy-2-[(4-methoxyphenyl)methyl]pyrrolidin-3-yl N-{2-[(3R,4R)-3,4-dihydroxypyrrolidin-1-yl]ethyl}carbamate]
> 30 µM | 20 to 30 µM | > 30 µM | COc1ccc(C[C@H]2NC[C@H](O)[C@H]2OC(=O)NCCN2C[C@@H](O)[C@H](NC(C)=O)C2)cc1 [V187578, (2R,3S,4S)-4-hydroxy-2-[(4-methoxyphenyl)methyl]pyrrolidin-3-yl N-{2-[(3R,4R)-3-acetamido-4-hydroxypyrrolidin-1-yl]ethyl}carbamate]

SMILES | IC50 (MYC) | IC50 (ALK) | IC50 (KRAS G12D)
CCN(CC)CCCNC(=O)O[C@@H]1[C@@H](O)CN[C@@H]1Cc1ccc(OC)cc1 [V187387, (2R,3S,4S)-4-hydroxy-2-[(4-methoxyphenyl)methyl]pyrrolidin-3-yl N-[3-(diethylamino)propyl]carbamate trifluoroacetic acid salt] | 20 to 30 µM | < 10 µM | > 30 µM
COc1ccc(C[C@H]2NC[C@H](O)[C@H]2OC(=O)NCCNc2c(N)c(=O)c2=O)cc1 [V187518, (2R,3S,4S)-4-hydroxy-2-[(4-methoxyphenyl)methyl]pyrrolidin-3-yl N-{2-[(2-amino-3,4-dioxocyclobut-1-en-1-yl)amino]ethyl}carbamate; trifluoroacetic acid] | > 30 µM | 10 to 20 µM | > 30 µM
COc1ccc(C[C@H]2NC[C@H](O)[C@H]2OC(=O)NC[C@@H]2CCCO2)cc1 [V187520, (2R,3S,4S)-4-hydroxy-2-[(4-methoxyphenyl)methyl]pyrrolidin-3-yl N-[(2S)-oxolan-2-ylmethyl]carbamate; trifluoroacetic acid] | 20 to 30 µM | < 10 µM | > 30 µM
COCCN(CCNC(=O)O[C@@H]1[C@H](O)CN[C@H]1Cc1ccc(OC)cc1)CCOC [V187538, (2S,3S,4R)-4-hydroxy-2-[(4-methoxyphenyl)methyl]pyrrolidin-3-yl N-{2-[bis(2-methoxyethyl)amino]ethyl}carbamate; trifluoroacetic acid] | 10 to 20 µM | < 10 µM | > 30 µM
COc1ccc(C[C@@H]2NC[C@@H](O)[C@H]2OC(=O)NCCN(CCC(N)=O)Cc2c[nH]cn2)cc1 [V187539, (2S,3S,4R)-4-hydroxy-2-[(4-methoxyphenyl)methyl]pyrrolidin-3-yl N-{2-[(2-carbamoylethyl)(1H-imidazol-4-ylmethyl)amino]ethyl}carbamate; trifluoroacetic acid] | < 10 µM | < 10 µM | 20 to 30 µM
CCN(CC)Cc1nnc(NC(=O)O[C@@H]2[C@@H](O)CN[C@@H]2Cc2ccc(OC)cc2)s1 [V187552, (2R,3S,4S)-4-hydroxy-2-[(4-methoxyphenyl)methyl]pyrrolidin-3-yl N-{5-[(diethylamino)methyl]-1,3,4-thiadiazol-2-yl}carbamate; trifluoroacetic acid] | > 30 µM | > 30 µM | > 30 µM
COc1ccc(C[C@H]2NC[C@H](O)[C@H]2OC(=O)Nc2nnc(C)s2)cc1 [V187553, (2R,3S,4S)-4-hydroxy-2-[(4-methoxyphenyl)methyl]pyrrolidin-3-yl N-(5-methyl-1,3,4-thiadiazol-2-yl)carbamate; trifluoroacetic acid] | > 30 µM | > 30 µM | > 30 µM
COc1ccc(C[C@H]2NC[C@H](O)[C@H]2OC(=O)NCCN2CCCC2)cc1 [V187565, (2R,3S,4S)-4-hydroxy-2-[(4-methoxyphenyl)methyl]pyrrolidin-3-yl N-[2-(pyrrolidin-1-yl)ethyl]carbamate; trifluoroacetic acid] | > 30 µM | < 10 µM | > 30 µM
COc1ccc(C[C@H]2NC[C@H](O)[C@H]2OC(=O)NCCN2CCC2)cc1 [V187566, (2R,3S,4S)-4-hydroxy-2-[(4-methoxyphenyl)methyl]pyrrolidin-3-yl N-[2-(azetidin-1-yl)ethyl]carbamate; trifluoroacetic acid] | > 30 µM | 10 to 20 µM | > 30 µM
COc1ccc(C[C@H]2NC[C@H](O)[C@H]2OC(=O)NCCN2CC(O)(CNC(C)=O)C2)cc1 [V187582, (2R,3S,4S)-4-hydroxy-2-[(4-methoxyphenyl)methyl]pyrrolidin-3-yl N-{2-[3-(acetamidomethyl)-3-hydroxyazetidin-1-yl]ethyl}carbamate hydrochloride] | > 30 µM | 10 to 20 µM | > 30 µM
